Laboratory results: patent US20260150798A1, “METHODS AND COMPOSITIONS FOR IMPROVED PLANT REGENERATION FROM MICROSPORE-DERIVED EMBRYOS” (Monsanto Technology LLC, priority 2022, published 2026)
Entries after “also recorded” stand apart in the source; their conditions may differ.

Tested on: microspore-derived embryos from 10 proprietary canola lines
Experiment: Culture-free maturation and regeneration of microspore-derived embryos in soil, canola
Assay type: in vivo
Conditions: 5 mg/L added to MDE Maturation Medium, about 1 to about 24 hours before transfer to soil
Experimental: The optimal time to dilute the microspore-derived embryos to a concentration of about 200 to about 400 embryos per plate containing 15 mL medium is about 15 days to about 20 days after the beginning microspore culture initiation (days after culture) (DAC). At this stage, the embryos are green, individually distinguishable with the naked eye, and the majority are in the torpedo stage of development. During the dilution step the embryogenesis induction medium (NLN13) is replaced with MDE Maturation Medium. The microspore-derived embryos were diluted by transferring about 200 to about 400 embryos to a new plate containing 15 mL of MDE Maturation Medium. If the original plates have a starting concentration of about 200 embryos per plate or less, then the media of the original plate is replaced with MDE Maturation Medium without embryo dilution. Following dilution and/or media replacement, plates were returned to 100 μmol fluorescent light for a 16 hour photoperiod, 25° C. day and night with an orbital shaker set to 60 RPM, and cultured to about 28 to about 30 DAC to reach a matured cotyledon stage before transferring to a solid regeneration medium. […] Regeneration rate was measured after 28 days of incubation. Microspore-derived embryos from 10 proprietary canola lines were analyzed in a series of protocols to identify optimized conditions for culture-free maturation and regeneration. […]

Which “effect on rooting, plantlet survival and establishment in soil” value does the source give for O=C(O)CCCc1c[nH]c2ccccc12 [IBA, indole-3-butyric acid] here?
The value was “accelerates rooting and increases plantlet survival and establishment in soil; also recorded: improves rooting”.
